Measurements: PubChem BioAssay (NCI)
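GI50 = concentration required for 50% inhibition of growth. The concentration for full growth arrest is given as TGI.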

Columns and labels:
Assay in all cases: NCI tumour cell line growth inhibition, 384-well format
A498 renal = system: A498 renal
CAKI-1 renal = system: CAKI-1 renal
HOP-62 NSCLC = system: HOP-62 NSCLC
HOP-92 NSCLC = system: HOP-92 NSCLC
LOX IMVI melanoma = system: LOX IMVI melanoma
MALME-3M melanoma = system: MALME-3M melanoma
MDA-MB-468 breast = system: MDA-MB-468 breast
NCI/ADR-RES ovarian = system: NCI/ADR-RES ovarian
OVCAR-5 ovarian = system: OVCAR-5 ovarian
PC-3 prostate = system: PC-3 prostate
SK-OV-3 ovarian = system: SK-OV-3 ovarian
SNB-75 CNS = system: SNB-75 CNS
T-47D breast = system: T-47D breast

COc1cc2c(Nc3cc(Cl)c(OC)c(Cl)c3)c(C#N)cnc2cc1OCCCN1CCN(C)CC1
GI50 (A498 renal): 257 nM
TGI (A498 renal): 1400 nM
GI50 (CAKI-1 renal): 180 nM
TGI (CAKI-1 renal): 1340 nM
GI50 (HOP-62 NSCLC): 1090 nM
TGI (HOP-62 NSCLC): 2440 nM
GI50 (HOP-92 NSCLC): 465 nM
TGI (HOP-92 NSCLC): 1490 nM
GI50 (LOX IMVI melanoma): 1230 nM
TGI (LOX IMVI melanoma): 2490 nM
GI50 (MALME-3M melanoma): 296 nM
TGI (MALME-3M melanoma): 1160 nM
GI50 (MDA-MB-468 breast): 288 nM
TGI (MDA-MB-468 breast): 618 nM
GI50 (NCI/ADR-RES ovarian): 1830 nM
TGI (NCI/ADR-RES ovarian): 3.64 µM
GI50 (OVCAR-5 ovarian): 1200 nM
TGI (OVCAR-5 ovarian): 2700 nM
GI50 (PC-3 prostate): 1320 nM
TGI (PC-3 prostate): 2880 nM
GI50 (SK-OV-3 ovarian): 167 nM
TGI (SK-OV-3 ovarian): 1420 nM
GI50 (SNB-75 CNS): 1270 nM
TGI (SNB-75 CNS): 2540 nM
GI50 (T-47D breast): 1330 nM
TGI (T-47D breast): 2630 nM
